The test system of this assay is cabbage aphids (Brevicoryne brassicae). In words: Test Example 8 and Comparative Test: spray on cabbage seedling infested with cabbage aphids. In kind it is in vivo. Particulars: Comparative Test according to Test example 8.

Each structure is given as a SMILES string.

`O=c1cc(C(F)(F)F)ncn1-c1ncc(C(F)(F)F)cc1Cl` [Comparative compound 2]: the “Controlling value at 500 ppm (%)” value amounted to 14%.

Regarding `CCS(=O)(=O)c1cc(C(F)(F)F)cnc1-n1cnc(C(F)(F)F)cc1=O` [C-33], the “Controlling value at 500 ppm (%)” value worked out at 77%.

As to `O=c1cc(C(F)(F)F)ccn1-c1ncc(C(F)(F)F)cc1Cl` [Comparative compound 1], the “Controlling value at 500 ppm (%)” value was 7%.

As for `CCS(=O)(=O)c1cc(C(F)(F)F)cnc1-n1ccc(C(F)(F)F)cc1=O` [A-48], the “Controlling value at 500 ppm (%)” value is on record as 93%.
